# Assay results from paper PMC3967794 (Journal of medicinal chemistry, 2014).
# How the values were obtained:
# in vivo = details: male, CD1, mouse, po, 30 mg/kg
# [1] = molecular target: T1, human platelet 12-lipoxygenase (12-LOX) (Homo sapiens, UniProt P18054); assay: Lipoxygenase UV–vis cuvette-based assay, 12-LOX; type: biochemical
# T1 sequence (P18054 1-663): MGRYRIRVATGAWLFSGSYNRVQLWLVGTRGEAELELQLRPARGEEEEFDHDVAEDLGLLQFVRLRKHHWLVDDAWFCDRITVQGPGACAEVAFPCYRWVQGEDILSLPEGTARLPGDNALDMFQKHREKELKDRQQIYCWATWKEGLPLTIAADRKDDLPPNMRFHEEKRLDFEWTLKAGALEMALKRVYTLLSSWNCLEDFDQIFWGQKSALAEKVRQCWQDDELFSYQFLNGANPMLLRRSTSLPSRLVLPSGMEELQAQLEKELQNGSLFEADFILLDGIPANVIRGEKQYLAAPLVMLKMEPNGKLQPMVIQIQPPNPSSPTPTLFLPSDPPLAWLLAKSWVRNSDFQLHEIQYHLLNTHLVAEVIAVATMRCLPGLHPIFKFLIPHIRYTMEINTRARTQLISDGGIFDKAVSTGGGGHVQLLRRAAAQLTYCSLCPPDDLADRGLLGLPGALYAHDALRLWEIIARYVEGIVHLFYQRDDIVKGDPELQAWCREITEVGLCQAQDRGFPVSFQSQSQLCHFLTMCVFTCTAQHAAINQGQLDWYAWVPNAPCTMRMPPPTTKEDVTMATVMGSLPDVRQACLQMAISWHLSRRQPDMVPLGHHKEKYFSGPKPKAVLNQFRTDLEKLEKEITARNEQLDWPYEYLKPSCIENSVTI
# 12-LOX = molecular target: T2, 12-LOX (Homo sapiens, UniProt P18054); assay: Steady-state inhibition kinetics; type: biochemical
# T2 sequence (P18054 1-663): T1 sequence (P18054 1-663)
# [2] = pH 7.4, 48 h
# [3] = in the presence of NADPH
Structure (SMILES),PBS buffer (pH 7.4) solubility (PBS buffer),12-LOX inhibitory activity (in words) [1],other results
"COc1cccc(CNc2ccc(S(=O)(=O)Nc3nc4ccccc4s3)cc2)c1O [Compound 35, N-(Benzo[d]thiazol-2-yl)-4-((2-hydroxy-3-methoxybenzyl)-amino)benzenesulfonamide]",<5 µg/mL,–,concentration at which calcium mobilization is reduced significantly (human platelets): 250 nM; AUC(0-inf) (in vivo): 38 µM·h
O=S(=O)(Nc1nccs1)c1ccc(NCc2ccccc2)cc1 [Compound 8],–,complete loss of activity,–
Nc1ccccc1CNc1ccc(S(=O)(=O)Nc2nccs2)cc1 [Compound 13],–,negated all 12-LOX inhibitory activity,–
O=S(=O)(Nc1nccs1)c1ccc(NCc2ccccc2O)cc1 [Compound 9],–,complete loss of activity,–
COc1cccc(CNc2ccc(S(=O)(=O)Nc3nc4ccccc4o3)cc2)c1O [Compound 36],>60 µg/mL,–,mode of inhibition (12-LOX): mixed inhibitors; PBS buffer (pH 7.4) stability at 48 h [2]: 100%; microsomal stability T1/2 (rat) [3]: >30 (rat) min
